Measurements taken from the NIST ThermoML archive (doi:10.1016/j.jct.2010.12.028).
± gives the expanded uncertainty stated by the source.

Details: 298.15 K, 101.33 kPa, Liquid; for speed of sound: Sing-around technique in a fixed-path interferometer; for mass density: Vibrating tube method

`c1ccncc1` [pyridine] gave a speed of sound of 1417.8 ± 2.3 m/s and a mass density of 978.249 ± 0.24 kg/m3.
`Cc1ccncc1` [4-methylpyridine] showed a speed of sound of 1431.5 ± 2.3 m/s and a mass density of 950.179 ± 0.24 kg/m3.
For `Cc1cccnc1` [3-methylpyridine], the speed of sound was 1424 ± 2.3 m/s and the mass density was 952.002 ± 0.24 kg/m3.
With `Cc1ccccn1` [2-methylpyridine] the speed of sound was 1380.1 ± 2.9 m/s and the mass density was 939.802 ± 0.77 kg/m3.
With `Cc1ccccc1N` [2-methylaniline] the speed of sound was 1602.6 ± 2.4 m/s and the mass density was 994.351 ± 0.24 kg/m3.
